Measured values as given in US9085555B2, “Complement pathway modulators and uses thereof” (priority 2011, dated 2015).

Biological target: Factor D (Homo sapiens (Human), UniProt P00746)
Assay: biochemical
Assay type: biochemical
Settings: read-out: IC50

Factor D, sequence (P00746 26-253): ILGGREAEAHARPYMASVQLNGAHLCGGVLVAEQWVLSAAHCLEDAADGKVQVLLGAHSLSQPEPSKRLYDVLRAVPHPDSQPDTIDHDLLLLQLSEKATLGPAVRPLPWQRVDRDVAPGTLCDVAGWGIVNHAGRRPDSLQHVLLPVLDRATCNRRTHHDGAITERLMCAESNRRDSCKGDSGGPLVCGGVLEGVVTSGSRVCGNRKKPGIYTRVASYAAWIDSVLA

| Compound | IC50 [nM] |
| --- | --- |
| C=CCOc1ccc2c(NC(=O)N3C4CC4C[C@H]3C(=O)NCc3cccc(Cl)c3F)cn(C(N)=O)c2c1 (stereo partly drawn) [Example 311, (1R,3S,5R)-2-Aza-bicyclo[3.1.0]hexane-2,3-dicarboxylic acid 2-[(6-allyloxy-1-carbamoyl-1H-indol-3-yl)-amide] 3-(3-chloro-2-fluoro-benzylamide)] | 70 |
| NC(=O)n1cc(NC(=O)N2C[C@@H](CO)C[C@H]2C(=O)NCc2cccc(Cl)c2F)c2ccccc21 [Example 312, (2S,4S)-4-Hydroxymethyl-pyrrolidine-1,2-dicarboxylic acid 1-[(1-carbamoyl-1H-indol-3-yl)-amide] 2-(3-chloro-2-fluoro-benzylamide)] | 115 |
| NC(=O)n1cc(NC(=O)N2CCC[C@H]2C(=O)Nc2cccc(OC(F)(F)F)c2)c2ccc(OCc3ccccc3)cc21 [Example 313, (S)-Pyrrolidine-1,2-dicarboxylic acid 1-[(6-benzyloxy-1-carbamoyl-1H-indol-3-yl)-amide]2-[(3-trifluoromethoxy-phenyl)-amide]] | 1300 |
| CN(C)C[C@@H](NC(=O)[C@@H]1C[C@H]2C[C@H]2N1C(=O)Nc1cn(C(N)=O)c2ccccc12)c1cccc(Cl)c1F [Example 314, (1R,3S,5R)-2-Aza-bicyclo[3.1.0]hexane-2,3-dicarboxylic acid 2-[(1-carbamoyl-1H-indol-3-yl)-amide] 3-{[(S)-1-(3-chloro-2-fluoro-phenyl)-2-dimethylamino-ethyl]-amide}] | 20 |
| CCOC(=O)Cc1ccc2c(NC(=O)N3[C@@H]4C[C@@H]4C[C@H]3C(=O)NCc3cccc(Cl)c3F)cn(C(N)=O)c2c1 [Example 315, (1-carbamoyl-3-{[(1R,3S,5R)-3-(3-chloro-2-fluoro-benzylcarbamoyl)-2-aza-bicyclo[3.1.0]hexane-2-carbonyl]-amino}-1H-indol-6-yl)-acetic acid ethyl ester] | 13 |
| CO[C@@H]1C[C@@H](C(=O)Nc2cccc(OC(F)(F)F)c2)N(C(=O)Nc2cn(C(N)=O)c3ccccc23)C1 [Example 316, (2S,4R)-4-Methoxy-pyrrolidine-1,2-dicarboxylic acid 1-[(1-carbamoyl-1H-indol-3-yl)-amide] 2-[(3-trifluoromethoxy-phenyl)-amide]] | 3100 |
| CC(C)(C)c1cc(NC(=O)[C@@H]2C[C@@H](F)CN2C(=O)Nc2cn(C(N)=O)c3ccccc23)ccn1 [Example 317, (2S,4R)-4-Fluoro-pyrrolidine-1,2-dicarboxylic acid 2-[(2-tert-butyl-pyridin-4-yl)-amide] 1-[(1-carbamoyl-1H-indol-3-yl)-amide]] | 2800 |
| COC(=O)COc1ccc2c(c1)c(NC(=O)N1C[C@](C)(F)C[C@H]1C(=O)NCc1cccc(Cl)c1F)cn2C(N)=O [Example 318, (1-carbamoyl-3-{[(2S,4R)-2-(3-chloro-2-fluoro-benzylcarbamoyl)-4-fluoro-4-methyl-pyrrolidine-1-carbonyl]amino}-1H-indol-5-yloxy)-acetic acid methyl ester] | 3 |
| NC(=O)n1cc(NC(=O)N2C[C@H](F)C[C@H]2C(=O)N[C@H](c2cccc(Cl)c2)C(F)(F)F)c2ccccc21 [Example 319, (2S,4R)-4-Fluoro-pyrrolidine-1,2-dicarboxylic acid 1-[(1-carbamoyl-1H-indol-3-yl)-amide] 2-{[(R)-1-(3-chloro-phenyl)-2,2,2-trifluoro-ethyl]-amide}] | 548 |
| NC(=O)n1cc(NC(=O)N2[C@@H]3C[C@@H]3C[C@H]2C(=O)N[C@H](CO)c2cccc(Cl)c2)c2ccccc21 [Example 320, (1R,3S,5R)-2-Aza-bicyclo[3.1.0]hexane-2,3-dicarboxylic acid 2-[(1-carbamoyl-1H-indol-3-yl)-amide] 3-{[(S)-1-(3-chloro-phenyl)-2-hydroxy-ethyl]-amide}] | 7 |
| NC(=O)n1cc(NC(=O)N2CCS[C@H]2C(=O)Nc2cncc(Br)c2)c2ccccc21 [Example 321, (S)-Thiazolidine-2,3-dicarboxylic acid 3-[(1-carbamoyl-1H-indol-3-yl)-amide] 2-[(5-bromo-pyridin-3-yl)-amide]] | 85 |
| CN1CCN(C(=O)c2cc(Cl)c(F)c(CNC(=O)[C@@H]3C[C@@H](F)CN3C(=O)Nc3cn(C(N)=O)c4ccccc34)c2)CC1 [Example 322, (2S,4R)-4-Fluoro-pyrrolidine-1,2-dicarboxylic acid 1-[(1-carbamoyl-1H-indol-3-yl)-amide] 2-[3-chloro-2-fluoro-5-(4-methyl-piperazine-1-carbonyl)-benzylamide]] | 348 |
| NC(=O)n1cc(NC(=O)N2C[C@H](F)C[C@H]2C(=O)Nc2ccncc2F)c2ccccc21 [Example 323, (2S,4R)-4-Fluoro-pyrrolidine-1,2-dicarboxylic acid 1-[(1-carbamoyl-1H-indol-3-yl)-amide] 2-[(3-fluoro-pyridin-4-yl)-amide]] | 902 |
| NC(=O)c1cccc(NC(=O)[C@@H]2CCCN2C(=O)Nc2cn(C(N)=O)c3ccccc23)c1 [Example 324, (S)-Pyrrolidine-1,2-dicarboxylic acid 1-[(1-carbamoyl-1H-indol-3-yl)-amino] 2-[(3-carbamoyl-phenyl)-amide]] | 4250 |
| CS(=O)(=O)c1cccc(NC(=O)[C@@H]2CCCN2C(=O)Nc2cn(C(N)=O)c3ccccc23)c1 [Example 325, (S)-Pyrrolidine-1,2-dicarboxylic acid 1-[(1-carbamoyl-1H-indol-3-yl)-amide] 2-[(3-methanesulfonyl-phenyl)-amide]] | 2250 |
| NC(=O)n1cc(NC(=O)N2C[C@H](F)C[C@H]2C(=O)Nc2ncccc2F)c2ccccc21 [Example 327, (2S,4R)-4-Fluoro-pyrrolidine-1,2-dicarboxylic acid 1-[(1-carbamoyl-1H-indol-3-yl)-amide] 2-[(3-fluoro-pyridin-2-yl)-amide]] | 1700 |
| CN(C)CCN(C)c1cc(Cl)c(F)c(CNC(=O)[C@@H]2C[C@@H](F)CN2C(=O)Nc2cn(C(N)=O)c3ccccc23)c1 [Example 329, (2S,4R)-4-Fluoro-pyrrolidine-1,2-dicarboxylic acid 1-[(1-carbamoyl-1H-indol-3-yl)-amide] 2-{3-chloro-5-[(2-dimethylamino-ethyl)-methyl-amino]-2-fluoro-benzylamide}] | 181 |
| CC(C)(C)c1cccc(NC(=O)[C@@H]2CC3CC3N2C(=O)Nc2cn(C(N)=O)c3ccccc23)c1 (stereo partly drawn) [Example 330, (1R,3S,5R)-2-Aza-bicyclo[3.1.0]hexane-2,3-dicarboxylic acid 3-[(3-tert-butyl-phenyl)-amide] 2-[(1-carbamoyl-1H-indol-3-yl)-amide]] | 250 |
| NC(=O)n1cc(NC(=O)N2C[C@@H](O)C[C@H]2C(=O)NCc2cccc(Cl)c2F)c2ccccc21 [Example 331, (2S,4S)-4-Hydroxy-pyrrolidine-1,2-dicarboxylic acid 1-[(1-carbamoyl-1H-indol-3-yl)-amide] 2-(3-chloro-2-fluoro-benzylamide)] | 35 |
| CCOC(=O)c1cc(Br)c(F)c(NC(=O)[C@@H]2C[C@@H](F)CN2C(=O)Nc2cn(C(N)=O)c3ccccc23)c1 [Example 333, 3-Bromo-5-{[(2S,4R)-1-(1-carbamoyl-1H-indol-3-ylcarbamoyl)-4-fluoro-pyrrolidine-2-carbonyl]-amino}-4-fluoro-benzoic acid ethyl ester] | 47 |
